Tests used:
[1] = tested on: growth hormone (GH) production; experiment: GH production suppression test with rats; format: in vivo, rat; settings: for GH concentration in plasma / GH production suppression activity (in words): rat; for GH concentration in plasma: 1 hour before GRF, blood 5 minutes after GRF, vehicle 861; for GH: rat plasma GH concentration; for GH production suppression activity (in words): s.c., 10 or 100 nmol/kg
Source text: As shown in Example 69, the glycosylated polypeptide of the present invention had affinity towards each receptor of SSTR. […] Increase of GH production amount into the blood is thought to cause proliferation or differentiation of cells and activation or suppression of the biosynthetic system in various organs via the paracrine effect of GH, and thereby influence biological reactions. Somatostatin released from the hypothalamus suppresses GH secretion from the anterior pituitary gland into the blood.
. Moreover, GRF (GH releasing hormone, Growth hormone releasing factor) was used as the GH release enhancer. GRF was prepared by dissolving GRF injectable solution (GRF Sumitomo 50 for injection, Lot. 2006C, from Dainippon Sumitomo Pharma Co., Ltd.) in 1 mL of water for injection (Lot. 09H18C, from Fuso Pharmaceutical Industries, Ltd.), and then diluting to 25-folds with saline to obtain 2 μg/mL. As heparin employed as the anticoagulant when collecting blood, Japanese Pharmacopeia heparin sodium injectable solution (Lot. B084, from Mochida Pharmaceutical Co., Ltd.) was used directly as stock solution.
[…]. As the control group, saline without glycosylated polypeptide was similarly administered (vehicle group). Then, i.e. between 5-6 minutes after the administration of the glycosylated form, pentobarbital sodium (somnopentyl, Lot. 0608101, from Kyoritsuseiyaku Corporation) was intraperitoneally administered as a general anesthetic with a glass syringe and an injection needle to give 50 mg/kg. […] […].
. […] By multiplying the results obtained and the dilution ratio, the GH concentration was calculated.

[2] = tested on: rat gastrointestinal obstruction model; experiment: Gastrointestinal obstruction model: intestinal fluid weight of the jejunum; format: in vivo; settings: for Intestinal fluid weight: Table 9, rat, 40 μM solution 1 mL/kg s.c. 18 h after ligation, 1 h after administration
Source text: Anesthesia was introduced with inhalation of 2% isoflurane and laughing gas:oxygen=7:3, and this was maintained throughout the surgery. A median incision was made in the abdomen, and the jejunum at about 10 cm from the musculus suspensorius duodeni was ligated with a surgical suture. Then, the incision site was promptly sutured, and the rats were fasted until compound administration. In the sham treatment group, ligation of the jejunum was not performed, but the treatment of suturing the incision site after a median incision was made in the abdomen was performed.
(§1) Eighteen hours after the gastrointestinal obstruction surgery, this was subcutaneously administered into the dorsal cervix at a dosage of 1 mL/kg with a glass syringe and a 25 G injection needle (all from Terumo Corporation). As the vehicle group, saline without glycosylated polypeptide was similarly administered.
One hour after compound administration, a median incision was made in the abdomen under inhalation anesthesia, and 1.5 mL of blood was collected from the abdominal vena cava. Then, the ligated jejunum on the musculus suspensorius duodeni side was resected. The fluid and blood on the jejunum surface were removed with a paper towel, nerves, blood vessels, and fat attached to the jejunum was removed, this was cut into 6 cm lengths, and wet weight was measured. This was then dried at 36 degrees for 24 hours, and dry weight was measured. The intestinal fluid weight (mg) was calculated by wet weight-dry weight.

[3] = tested on: rat gastrointestinal obstruction model; experiment: Gastrointestinal obstruction model: blood parameters (amylase, LDH, CPK); format: in vivo
Procedure: This experimental line was carried out as a test line to evaluate the promotion of intestinal fluid absorption or the secretory suppressing action, using the change in the intestinal fluid weight in the jejunum after bowel obstruction as an indicator. Moreover, blood parameters of deviation enzymes amylase (pancreas), lactate dehydrogenase (LDH, liver), and creatine phosphokinase (CPK, skeletal muscle, cardiac muscle etc.) were measured as indicators of tissue disorders.
The present test was consigned to Mitsubishi Chemical Medience Corporation and carried out. […] Anesthesia was introduced with inhalation of 2% isoflurane and laughing gas:oxygen=7:3, and this was maintained throughout the surgery. A median incision was made in the abdomen, and the jejunum at about 10 cm from the musculus suspensorius duodeni was ligated with a surgical suture. Then, the incision site was promptly sutured, and the rats were fasted until compound administration. In the sham treatment group, ligation of the jejunum was not performed, but the treatment of suturing the incision site after a median incision was made in the abdomen was performed.
as §1
One hour after compound administration, a median incision was made in the abdomen under inhalation anesthesia, and 1.5 mL of blood was collected from the abdominal vena cava.
The measuring methods employed were BG5B, UV-rate, and JSCC methods, respectively.

SSTR1-SSTR5 = experiment: Competitive binding assay, statements over all receptors SSTR1-SSTR5; parameters: species or system Human; settings: range over SSTR1-SSTR5, Example 69-1
Procedure: Competitive binding assay was performed with the method below to calculate receptor binding affinity.
Competitive binding assay was consigned to Ricerca Biosciences, and experiment and data analysis was performed. […] The test substance was used at a concentration of 0.01 nM, 0.1 nM, 1 nM, 10 nM, 100 nM, or 1000 nM, and mixed with the membrane sample into a reaction solution. The incubation condition of the reaction solution was at 25° C. for 4 hours for SSTR2 and at 25° C. for 2 hours for SSTR1, SSTR3, SSTR4, and SSTR5.

[4] = Table 10, blood 1 h after s.c. administration
[5] = blood collected one hour after compound administration, rat gastrointestinal obstruction model

With 29C(disialo)-SRIF28 [Example 13] the “GH concentration in plasma” value ([1]; subcutaneous 10 nmol/kg) was 497 ng/mL and the “GH concentration in plasma” value ([1]; subcutaneous 100 nmol/kg) was 88.5 ng/mL.

`C[C@@H](O)[C@@H]1NC(=O)[C@H](CCCCN)NC(=O)[C@@H](Cc2c[nH]c3ccccc23)NC(=O)[C@H](Cc2ccccc2)NC(=O)[C@@H](NC(=O)[C@H](N)Cc2ccccc2)CSSC[C@@H](C(=O)N[C@H](CO)[C@@H](C)O)NC1=O` [Octreotide] was tested, and the Intestinal fluid weight [2] was 693 ± 48 mg, the “Amylase activity compared to the vehicle (in words)” value [3, 4] was “equivalent to the vehicle” and the “LDH activity compared to the vehicle (in words)” value [3, 4] was “low value compared to the vehicle”. For the same molecule, the “Amylase (IU/L)” value [3, 5] was 1732 ± 774 IU/L, the “CPK (IU/L)” value [3, 5] was 472 ± 215 IU/L and the “LDH (IU/L)” value [3, 5] was 269 ± 141 IU/L.

For A9C(disialo)-SRIF28 [Example 3], the “GH” value ([1]; dose 1 nmol/kg) was 577 ng/mL and the “GH” value ([1]; dose 10 nmol/kg) was 20 ng/mL.

In the case of E12C(disialo)-SRIF28 [Example 4], the “GH” value ([1]; dose 10 nmol/kg) was 10 ng/mL.

In the case of K14C(disialo)-SRIF28 [Example 6], the “GH” value ([1]; dose 10 nmol/kg) was 55 ng/mL and the “GH production suppression activity (in words)” value [1] was “showed GH production suppression activity”.

With N5C(disialo)-SRIF28 [Example 2] the “GH” value ([1]; dose 1 nmol/kg) was 969 ng/mL and the “GH” value ([1]; dose 10 nmol/kg) was 12 ng/mL.

N19C(disialo)-SRIF28 [Example 10] was tested, and the “GH concentration in plasma” value ([1]; subcutaneous 10 nmol/kg) was 563 ng/mL and the “GH concentration in plasma” value ([1]; subcutaneous 100 nmol/kg) was 1.5 ng/mL.

In the case of R13C(disialo)-SRIF28 [Example 5], the “GH” value ([1]; dose 10 nmol/kg) was 136 ng/mL and the “GH production suppression activity (in words)” value [1] was “showed GH production suppression activity”.

S1-2C(asialo)-SRIF28 [Example 28] was tested, and the “Affinity towards SSTR1-SSTR5, times higher than S1C(disialo)-SRIF28” value (SSTR1-SSTR5) was 1.7-2.9 folds, the Intestinal fluid weight [2] was 566 ± 34 mg and the “Intestinal fluid weight compared to the vehicle (in words)” value ([2]; text on Table 9) was “increase in the intestinal fluid weight compared to the vehicle”. For the same molecule, the “GH” value ([1]; dose 3 nmol/kg) was 997 ng/mL and the “GH” value ([1]; dose 10 nmol/kg) was 175 ng/mL.

In the case of S1C(asialo)-SRIF28 [Example 27], the “GH” value ([1]; dose 1 nmol/kg) was 879 ng/mL, the “GH” value ([1]; dose 3 nmol/kg) was 515 ng/mL and the “GH” value ([1]; dose 10 nmol/kg) was 146 ng/mL.

S1C(disialo(Bn))-SRIF28 [Example 61] was tested, and the “GH” value ([1]; dose 10 nmol/kg) was 49 ng/mL.

With S1C(disialo(amide))-SRIF28 [Example 60] the “GH” value ([1]; dose 10 nmol/kg) was 14 ng/mL.

In the case of “S1C(disialo(aminoethylamide))-SRIF28 [Example 59]”, the “GH” value ([1]; dose 10 nmol/kg) was 314 ng/mL.

With “S1C(disialo)-D-Trp22-SRIF28 [Example 15]” the “GH” value ([1]; dose 0.3 nmol/kg) was 986 ng/mL, the “GH” value ([1]; dose 1 nmol/kg) was 335 ng/mL and the “GH” value ([1]; dose 3 nmol/kg) was 50 ng/mL. The “GH” value ([1]; dose 10 nmol/kg) was 6 ng/mL and the “GH” value ([1]; dose 30 nmol/kg) was 2 ng/mL.

With S1C(monosialo)-SRIF28 [Example 26] the “GH” value ([1]; dose 10 nmol/kg) was 47 ng/mL.

Source: patent publication US9441024B2, “Glycosylated polypeptide and drug composition containing said polypeptide” (priority 2011, dated 2016)
